# Where two headings read alike, the source gives them in different places.
# Legend:
# cellular AMPK = experiment: p-ACC(Ser79) ELISA in K562 cell lysates (glucose-free media, 2-DG); format: cell-based; conditions: K562, dose response, FIG. 2B
# Method: FIGS. 2A and 2B are a series of graphs showing the effects of compounds of the present disclosure on cellular levels of p-ACC(Ser79) in K562 cells. FIG. 2A Quantitative ELISA determination of p-ACC(Ser79) levels in K562 lysates (1.0 mg mL^−1 total protein) following growth in glucose-free media for 24 h, 2-DG (12 mM) treatment for 1 h followed by treatment with inhibitor compounds at 5.0 μM for 2 h. Relative p-ACC levels are reported as a percentage of levels resultant from DMSO control treatment. […] Cells were collected, washed with PBS and lysed on ice in lysis buffer containing 1% Triton X (Cell Signaling). Lysates were someated (1×5 seconds) and centrifuged for 10 minutes at 10,000 rpm and 4° C., and the protein concentration in supernatants was determined by Lowry assay. Lysates were diluted with ELISA PathScan® sample diluent to a final volume of 100 μL and protein concentration of 1.0 mg/ml prior to use. The concentration of p-ACC (Ser79) was determined using an enzyme-linked immunosorbent assay according to recommended protocol (Cell Signaling, ELISA PathScan® phospho-Acetyl-CoA Carboxylase (Ser79)) and expressed as a relative percentage of the DMSO control.
# The AMPK substrate ACC is used as a biomarker for the relative activity of AMPK, and the levels of p-ACC(Ser79) were measured by ELISA in the absence or presence of the compounds to determine the compounds' effects on cellular AMPK activity. The presence of total AMPK, p-AMPK, total ACC, and p-ACC was measured by Western blot in a panel of leukemic cell lines grown in glucoe competent or glucose-free media. […] The cell lysates from K562 cells grown in glucose-free media in the presence 2-DG and treated with compounds of the present disclosure were analyzed by the p-ACC(Ser79) ELISA to determine the effect of the compounds on cellular AMPK activity.
# AMPK(α2) = AMPK(α2) (Homo sapiens (Human), UniProt P54646); experiment: LANCE Eu TR-FRET recombinant kinase assay, AMPK(α2); format: biochemical; conditions: mean±S.D. (n=3); ATP 20 μM
# Method: (§1) Assays were performed at 25° C. in a reaction mixture consisting of 2.5 μL serially diluted inhibitor solution, 2.5 μL kinase, 2.5 μL ATP and 2.5 μL substrate. Reagents were incubated for 1 hr before the reaction was halted through the addition of EDTA (10 mM) after which Eu anti-phospho-CREB (Ser133) antibody (PerkinElmer) was added at a final concentration of 2 nM for 1 hr. […] (n=3)).
# AMPKα1 = AMPKα1 (Homo sapiens (Human), UniProt Q13131); experiment: LANCE Eu TR-FRET recombinant kinase assay, AMPK(α1); format: biochemical
# Method: as §1
# KDR = KDR (Homo sapiens (Human), UniProt P35968); experiment: LanthaScreen Eu TR-FRET KDR competitive binding assay
# K562 cells [1] = experiment: CellTox green cellular toxicity assay in K562 cells (glucose-free media); format: cell-based; conditions: Homo sapiens
# Source text: Fluorescence was plotted against inhibitor log-dose and evaluated by a non-linear regression to determine half-maximal effect concentration (EC50) values, where possible.
# (§2) In order to increase the reliance of the cells on AMPK function, assays were needed that could be performed under glucose-free conditions. Therefore in order to elucidate the mechanism of action of the AMPK inhibitors, a CellTiter-Glo cell viability assay (FIG. 3B), which provide a readout proportional to ATP concentration, and thus, cellular viability, as well as a CellTox green cellular toxicity assay (FIG. 3C and FIG. 3D), which contain a dye that fluoresces upon DNA-binding in cells with impraied membrane integrity due to cytotoxicity were performed in K562 cells grown in glucose-free media. The results are summarized in Table 2 (values are the mean±S.D. (n=3)).
# K562 cells [2] = experiment: MTS cell viability assay in K562 cells; format: cell-based; conditions: Homo sapiens; K562, RPMI-1640; Table 2 head prints 24 h, method and FIG. 3A legend 72 hours
# Method: (§3) The cells were incubated with inhibitors for 24 hours, before the plates were equilibrated to room temperature and 100 μL CellTiter-Glo reagent was added. […] Luminescent signal was plotted against the inhibitor log-dose and evaluated by a non-linear regression to determine half-maximal effect concentration (EC50) values, where possible.
# An MTS assay was utilized to assess the effect of inhibitors on K562 viability.
# K562 cells [3] = experiment: CellTiter-Glo cell viability assay in K562 cells (glucose-free media); format: cell-based; conditions: Homo sapiens, read-out: EC50 CellTiter Glo 24 h
# Method: as §3, §2
# [4] = mean±S.D. (n=3), ATP 8 μM, read-out: IC50 (nM) AMPK(α1)
# [5] = read-out: IC50 (nM) KDR, mean±S.D. (n=3), competitive binding
# [6] = read-out: EC50 CellTox Green 48 h, 48 h
# [7] = read-out: EC50 CellTox Green 24 h, 24 h
# Sequence of AMPK(α2) (P54646 whole entry, looked up): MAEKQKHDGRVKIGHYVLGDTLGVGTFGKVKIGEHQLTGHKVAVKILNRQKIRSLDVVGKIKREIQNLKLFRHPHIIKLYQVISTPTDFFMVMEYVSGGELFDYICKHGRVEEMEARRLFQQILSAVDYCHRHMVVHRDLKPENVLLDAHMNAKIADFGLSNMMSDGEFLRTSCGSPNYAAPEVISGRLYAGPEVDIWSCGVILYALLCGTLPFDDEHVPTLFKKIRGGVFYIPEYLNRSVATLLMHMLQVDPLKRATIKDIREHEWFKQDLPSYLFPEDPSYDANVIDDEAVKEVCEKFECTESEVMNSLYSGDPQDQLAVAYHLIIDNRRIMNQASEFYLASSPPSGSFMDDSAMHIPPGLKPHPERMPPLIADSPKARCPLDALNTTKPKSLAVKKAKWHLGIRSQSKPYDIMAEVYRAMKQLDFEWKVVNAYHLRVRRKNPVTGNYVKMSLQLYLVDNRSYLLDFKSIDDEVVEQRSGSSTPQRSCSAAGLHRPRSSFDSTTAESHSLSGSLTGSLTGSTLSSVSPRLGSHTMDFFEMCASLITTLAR
# Sequence of AMPK(α2) (Q9Y478 whole entry partner, looked up): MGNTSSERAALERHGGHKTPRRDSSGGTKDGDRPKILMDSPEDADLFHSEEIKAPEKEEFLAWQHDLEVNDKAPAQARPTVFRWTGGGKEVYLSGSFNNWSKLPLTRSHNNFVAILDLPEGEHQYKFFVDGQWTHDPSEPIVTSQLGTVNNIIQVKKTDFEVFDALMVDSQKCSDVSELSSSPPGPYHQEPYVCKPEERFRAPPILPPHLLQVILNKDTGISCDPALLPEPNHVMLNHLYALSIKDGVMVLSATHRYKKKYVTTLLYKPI
# Sequence of AMPK(α2) (P54619 whole entry partner, looked up): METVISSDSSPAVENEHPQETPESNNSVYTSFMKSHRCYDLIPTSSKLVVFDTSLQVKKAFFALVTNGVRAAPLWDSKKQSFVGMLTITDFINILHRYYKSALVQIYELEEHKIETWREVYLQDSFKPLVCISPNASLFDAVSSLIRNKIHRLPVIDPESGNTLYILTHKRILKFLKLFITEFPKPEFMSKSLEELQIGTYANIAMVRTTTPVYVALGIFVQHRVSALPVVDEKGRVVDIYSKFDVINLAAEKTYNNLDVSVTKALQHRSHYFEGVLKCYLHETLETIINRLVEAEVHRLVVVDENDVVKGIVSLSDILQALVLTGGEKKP
# Sequence of KDR (P35968 20-1356): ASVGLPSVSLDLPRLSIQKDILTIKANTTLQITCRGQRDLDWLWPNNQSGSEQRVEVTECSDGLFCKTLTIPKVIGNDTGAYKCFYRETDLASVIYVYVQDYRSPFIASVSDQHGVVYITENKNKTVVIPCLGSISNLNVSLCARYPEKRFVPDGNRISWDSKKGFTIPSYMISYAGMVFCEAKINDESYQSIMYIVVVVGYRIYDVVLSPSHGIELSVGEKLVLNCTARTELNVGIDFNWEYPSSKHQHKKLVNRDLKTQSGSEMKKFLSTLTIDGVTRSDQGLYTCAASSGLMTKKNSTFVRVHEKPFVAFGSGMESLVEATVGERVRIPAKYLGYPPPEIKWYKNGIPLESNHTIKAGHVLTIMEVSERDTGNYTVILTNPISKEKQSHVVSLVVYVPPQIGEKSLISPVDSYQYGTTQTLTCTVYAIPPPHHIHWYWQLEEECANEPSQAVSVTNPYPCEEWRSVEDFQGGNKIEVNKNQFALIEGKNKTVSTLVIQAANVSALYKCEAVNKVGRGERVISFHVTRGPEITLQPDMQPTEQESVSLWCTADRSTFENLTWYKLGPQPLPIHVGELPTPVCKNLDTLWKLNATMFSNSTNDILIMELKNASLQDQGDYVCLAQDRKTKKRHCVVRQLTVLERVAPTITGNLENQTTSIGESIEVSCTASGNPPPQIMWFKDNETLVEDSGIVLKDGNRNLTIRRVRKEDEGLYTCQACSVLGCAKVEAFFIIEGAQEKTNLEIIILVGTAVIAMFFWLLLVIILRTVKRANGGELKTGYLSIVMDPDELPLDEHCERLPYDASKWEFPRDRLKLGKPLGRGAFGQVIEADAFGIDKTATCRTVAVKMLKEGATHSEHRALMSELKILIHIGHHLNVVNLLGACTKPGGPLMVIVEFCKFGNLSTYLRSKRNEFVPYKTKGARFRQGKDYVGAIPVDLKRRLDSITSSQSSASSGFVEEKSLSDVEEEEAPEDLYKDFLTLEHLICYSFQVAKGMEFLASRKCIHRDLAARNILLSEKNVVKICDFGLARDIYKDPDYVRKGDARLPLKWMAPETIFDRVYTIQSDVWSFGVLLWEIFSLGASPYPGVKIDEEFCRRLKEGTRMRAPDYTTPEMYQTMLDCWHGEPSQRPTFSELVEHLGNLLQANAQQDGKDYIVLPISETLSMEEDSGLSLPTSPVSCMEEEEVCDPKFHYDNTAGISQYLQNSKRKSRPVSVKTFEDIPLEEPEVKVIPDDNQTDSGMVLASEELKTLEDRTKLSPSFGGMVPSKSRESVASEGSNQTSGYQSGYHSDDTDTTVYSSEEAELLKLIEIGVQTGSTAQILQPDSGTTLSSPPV
# Sequence of AMPKα1 (Q13131 whole entry, looked up): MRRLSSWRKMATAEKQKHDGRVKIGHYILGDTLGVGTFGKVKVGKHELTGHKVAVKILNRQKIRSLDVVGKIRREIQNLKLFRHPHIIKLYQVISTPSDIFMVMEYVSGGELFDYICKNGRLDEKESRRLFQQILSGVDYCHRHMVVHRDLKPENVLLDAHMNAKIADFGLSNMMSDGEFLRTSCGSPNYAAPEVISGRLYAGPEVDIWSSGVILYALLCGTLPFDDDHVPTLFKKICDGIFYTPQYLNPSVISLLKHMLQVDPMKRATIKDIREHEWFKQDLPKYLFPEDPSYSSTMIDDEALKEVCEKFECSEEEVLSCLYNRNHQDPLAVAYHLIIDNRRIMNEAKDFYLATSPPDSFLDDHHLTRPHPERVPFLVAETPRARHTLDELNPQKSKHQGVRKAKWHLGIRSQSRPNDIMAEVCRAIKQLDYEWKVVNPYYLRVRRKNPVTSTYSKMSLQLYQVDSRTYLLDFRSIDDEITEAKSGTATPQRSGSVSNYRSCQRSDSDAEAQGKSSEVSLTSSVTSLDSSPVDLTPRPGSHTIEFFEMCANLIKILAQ
# Sequence of AMPKα1 (Q9Y478 whole entry partner, looked up): as the sequence (Q9Y478 whole entry partner, looked up) above
# Sequence of AMPKα1 (P54619 whole entry partner, looked up): as the sequence (P54619 whole entry partner, looked up) above
SMILES,IC50 (AMPK(α2)),IC50 (AMPKα1; [4]),IC50 (KDR; [5]),EC50 (K562 cells [1]; [6]),further results
CCN(CC)CCNC(=O)c1c(C)[nH]c(/C=C2\C(=O)Nc3ccc(CCO)cc32)c1C [Compound 65],–,–,–,–,p-ACC level reduction across concentration range compared with sunitinib (cellular AMPK): improvements in cellular AMPK inhibition over sunitinib at all concentrations apart from 50 μM
CCN(CC)CCNC(=O)c1c(C)[nH]c(/C=C2\C(=O)Nc3ccc(CCC(N)=O)cc32)c1C [Compound 67],–,–,–,–,p-ACC level reduction across concentration range compared with sunitinib (cellular AMPK): significant improvements in p-ACC level reduction with respect to sunitinib at both 3.125 mM and 12.5 mM
"Cc1[nH]c(/C=C2\C(=O)Nc3ccc(F)cc32)c(C)c1C(=O)NCCN [Compound No. 4, (Z)—N-(2-Aminoethyl)-5-((5-fluoro-2-oxoindolin-3-ylidene)methyl)-2,4-dimethyl-1H-pyrrole-3-carboxamide]",141 ± 33 nM,393 ± 27 nM,–,–,–
"Cc1[nH]c(/C=C2\C(=O)Nc3ccc(F)cc32)c(C)c1C(=O)NCCN(C)C [Compound No. 5, (Z)—N-(2-(Dimethylamino)ethyl)-5-((5-fluoro-2-oxoindolin-3-ylidene)methyl)-2,4-dimethyl-1H-pyrrole-3-carboxamide]",50.4 ± 17.9 nM,136 ± 16 nM,493 ± 24 nM,13030 ± 40 nM,EC50 (K562 cells [2]): 12600 ± 930 nM
CCNCCNC(=O)c1c(C)[nH]c(/C=C2\C(=O)Nc3ccc(F)cc32)c1C [Compound No. 6],61.4 ± 12.7 nM,180 ± 24 nM,505 ± 18 nM,11900 ± 1580 nM,EC50 (K562 cells [3]): 15500 ± 480 nM; EC50 (K562 cells [1]; [7]): 12890 ± 110 nM; EC50 (K562 cells [2]): 13600 ± 1690 nM
"Cc1[nH]c(/C=C2\C(=O)Nc3ccc(F)cc32)c(C)c1C(=O)NCCCN(C)C [Compound No. 7, (Z)—N-(3-(Dimethylamino)propyl)-5-((5-fluoro-2-oxoindolin-3-ylidene)methyl)-2,4-dimethyl-1H-pyrrole-3-carboxamide]",74.8 ± 3.1 nM,221 ± 31 nM,–,–,–
"CCN(CC)CCCNC(=O)c1c(C)[nH]c(/C=C2\C(=O)Nc3ccc(F)cc32)c1C [Compound No. 8, (Z)—N-(3-(Diethylamino)propyl)-5-((5-fluoro-2-oxoindolin-3-ylidene)methyl)-2,4-dimethyl-1H-pyrrole-3-carboxamide]",38.6 ± 10.6 nM,152 ± 22 nM,480 ± 52 nM,13270 ± 80 nM,EC50 (K562 cells [3]): 18000 ± 320 nM; EC50 (K562 cells [2]): 13500 ± 590 nM
"CCN(CC)CCNC(=O)c1c(C)[nH]c(/C=C2\C(=O)Nc3ccc(CCOC)cc32)c1C [Compound No. 9, (Z)—N-(2-(Diethylamino)ethyl)-5-((5-(2-methoxyethyl)-2-oxoindolin-3-ylidene)methyl)-2,4-dimethyl-1H-pyrrole-3-carboxamide]",96.6 ± 4.3 nM,296 ± 16 nM,–,–,–
"CCN(CC)CCNC(=O)c1c(C)[nH]c(/C=C2\C(=O)Nc3ccc(CCOC(C)=O)cc32)c1C [Compound No. 11, (Z)-2-(3-((4-((2-(Diethylamino)ethyl)carbamoyl)-3,5-dimethyl-1H-pyrrol-2-yl)methylene)-2-oxoindolin-5-yl)ethyl acetate]",111 ± 21 nM,418 ± 45 nM,–,–,–
"CCN(CC)CCNC(=O)c1c(C)[nH]c(/C=C2\C(=O)Nc3ccc(CCN(C)C)cc32)c1C [Compound No. 12, (Z)—N-(2-(Diethylamino)ethyl)-5-((5-(2-(dimethylamino)ethyl)-2-oxoindolin-3-ylidene)methyl)-2,4-dimethyl-1H-pyrrole-3-carboxamide]",154 ± 53 nM,–,–,–,"IC50 (AMPKα1; text value in μM, read-out: AMPKα1 IC50): 2100 ± 440 nM"
"CCN(CC)CCNC(=O)c1c(C)[nH]c(/C=C2\C(=O)Nc3ccc(CCN=[N+]=[N-])cc32)c1C [Compound No. 13, (Z)-5-((5-(2-Azidoethyl)-2-oxoindolin-3-ylidene)methyl)-N-(2-(diethylamino)ethyl)-2,4-dimethyl-1H-pyrrole-3-carboxamide]",101 ± 20 nM,139 ± 13 nM,–,4810 ± 80 nM,"EC50 (K562 cells [3]): 4860 ± 160 nM; IC50 (KDR; read-out: KDR IC50, values in μM): 2260 ± 110 nM; EC50 (K562 cells [2]): 3830 ± 50 nM"
"CCN(CC)CCNC(=O)c1c(C)[nH]c(/C=C2\C(=O)Nc3ccc(CCNC(C)=O)cc32)c1C [Compound No. 14, (Z)-5-((5-(2-Acetamidoethyl)-2-oxoindolin-3-ylidene)methyl)-N-(2-(diethylamino)ethyl)-2,4-dimethyl-1H-pyrrole-3-carboxamide]",108 ± 17 nM,184 ± 11 nM,2160 ± 101 nM,–,–
"CCN(CC)CCNC(=O)c1c(C)[nH]c(/C=C2\C(=O)Nc3ccc(C#N)cc32)c1C [Compound No. 17, (Z)-5-((5-Cyano-2-oxoindolin-3-ylidene)methyl)-N-(2-(diethylamino)ethyl)-2,4-dimethyl-1H-pyrrole-3-carboxamide]",16.2 ± 7.4 nM,93 ± 8 nM,391 ± 22 nM,13600 ± 350 nM,EC50 (K562 cells [3]): 19900 ± 1210 nM
"CCN(CC)CCNC(=O)c1c(C)[nH]c(/C=C2\C(=O)Nc3ccc(CNC(N)=O)cc32)c1C [Compound No. 18, (Z)—N-(2-(Diethylamino)ethyl)-2,4-dimethyl-5-((2-oxo-5-(ureidomethyl)indolin-3-ylidene)methyl)-1H-pyrrole-3-carboxamide]",83.6 ± 7 nM,205 ± 52 nM,–,–,–
"CCN(CC)CCNC(=O)c1c(C)[nH]c(/C=C2\C(=O)Nc3ccccc32)c1C [Compound No. 19, (Z)—N-(2-(Diethylamino)ethyl)-2,4-dimethyl-5-((2-oxoindolin-3-ylidene)methyl)-1H-pyrrole-3-carboxamide]",88.5 ± 7.1 nM,246 ± 11 nM,–,–,–
"CCN(CC)CCNC(=O)c1c(C)[nH]c(/C=C2\C(=O)Nc3cc(F)ccc32)c1C [Compound No. 20, (Z)—N-(2-(Diethylamino)ethyl)-5-((6-fluoro-2-oxoindolin-3-ylidene)methyl)-2,4-dimethyl-1H-pyrrole-3-carboxamide]",49.4 ± 22.1 nM,240 ± 37 nM,189 ± 7 nM,7150 ± 350 nM,EC50 (K562 cells [2]): 2850 ± 220 nM
"CCN(CC)CCNC(=O)c1c(C)[nH]c(/C=C2\C(=O)Nc3cc(Cl)ccc32)c1C [Compound No. 21, (Z)-5-((6-Chloro-2-oxoindolin-3-ylidene)methyl)-N-(2-(diethylamino)ethyl)-2,4-dimethyl-1H-pyrrole-3-carboxamide]",65.1 ± 12.3 nM,217 ± 37 nM,206 ± 7 nM,4180 ± 410 nM,EC50 (K562 cells [3]): 3830 ± 460 nM; EC50 (K562 cells [1]; [7]): 5240 ± 220 nM
"CCN(CC)CCNC(=O)c1c(C)[nH]c(/C=C2\C(=O)Nc3cc(Br)ccc32)c1C [Compound No. 22, (Z)-5-((6-Bromo-2-oxoindolin-3-ylidene)methyl)-N-(2-(diethylamino)ethyl)-2,4-dimethyl-1H-pyrrole-3-carboxamide]",82.5 ± 27.9 nM,208 ± 33 nM,–,–,–
"CCc1ccc2c(c1)NC(=O)/C2=C\c1[nH]c(C)c(C(=O)NCCN(CC)CC)c1C [Compound No. 24, (Z)—N-(2-(Diethylamino)ethyl)-5-((6-ethyl-2-oxoindolin-3-ylidene)methyl)-2,4-dimethyl-1H-pyrrole-3-carboxamide]",–,348 ± 71 nM,–,–,–
"CCN(CC)CCNC(=O)c1c(C)[nH]c(/C=C2\C(=O)Nc3cc(C(C)C)ccc32)c1C [Compound No. 25, N-(2-(Diethylamino)ethyl)-5-((6-isopropyl-2-oxoindolin-3-ylidene)methyl)-2,4-dimethyl-1H-pyrrole-3-carboxamide]",–,–,–,–,inhibition at 20 µM (AMPKα1; read-out: AMPK(α1) % inhibition at 20 μM): 70%
